Measured values: patent US12377111B2, “Composition, comprising thiamine derivative, for prevention or treatment of hypercortisolemia” (KYUNGPOOK NATIONAL UNIVERSITY INDUSTRY-ACADEMIC COOPERATION …, priority 2018, dated 2025)
Like-named read-outs stand apart in the source and are kept apart here.

What was measured:
[1] = tested on: CRH-overexpressed mice
Method: To investigate high-cortisol inhibitory effects, C57BL/6J normal mice (WT-con) aged 8 to 9 weeks and corticotropin-releasing hormone (CRH)-overexpressed mice, which are Cushing's syndrome animal models, were used. One group of CRH-overexpressed mice were orally administered with 60 mg/kg fursultiamine once a day for 9 weeks (CRH tg-Fur 60 mpk).
During this period, the body weight change was monitored by measuring body weights once a week. To check the concentration of corticosterone (in cases of rodents), blood was collected from the tail vein and serum was isolated. The concentration of corticosterone was measured from the isolated serum by using an enzyme-linked immunosorbent assay (ELISA) kit (Enzo Life Sciences, Inc., NY, USA). The fat mass was measured 6 weeks after administration of the drug by using a body composition analyzer (MiniSpec LF 50, Bruker Optics, Germany), and the fat distribution was again monitored with micro CT images 8 weeks after administration.

[2] = tested on: 8-week-old male mice; conditions: for corticosterone concentration: serum, oral 24 h and 2 h before stress
Method: For the restraint stress test, 8-week-old male mice were used, and were orally administered with fursultiamine once 24 hours before and once 2 hours before stress induction. For induction of stress, the mice were individually placed head-first into well-ventilated 50 mL polypropylene tubes, which were then tied with a cap of the 50 mL tube, and the mice were confined for 2 hours. Before stress induction, 1 hour and 2 hours after induction, and at 1 hour of recovery, blood was collected from the tail vein and serum was isolated, and then the concentration of corticosterone was measured using ELISA kit.

[3] = tested on: NCI-H295R cells; experiment: Cortisol production in 8-Br-cAMP-stimulated NCI-H295R cells (ELISA); type: cell-based, human; conditions: for Cortisol production concentration: 0.5 mM 8-Br-cAMP, 12 h pretreatment + 24 h; for Cortisol production concentration / inhibition of cortisol production increased by 0.5 mM 8-Br-cAMP (in words): NCI-H295R; for reduction in cortisol production: compared with non-treatment group (with 8-Br-cAMP treatment); for inhibition of cortisol production increased by 0.5 mM 8-Br-cAMP (in words): 20, 50, 100 μM
Method: Cortisol secretion inhibitory effects by allithiamine (Shanghai iChemical Technology CO., LTD., China), fursultiamine (Toronto Research Chemicals, Canada), or benfotiamine (Sigma-Aldrich, St. Louis, MO, USA), which are thiamine (vitamin B1) based compounds, were tested. For this, cortisol reduction effects in adrenal tumors that excessively secret cortisol were measured.
NCI-H295R (ATCC #CRL-2128) cells, a human adrenocortical carcinoma cell line, were dispensed into 24-well plates at 2.5×10^5 cells/well. Then, the cells were incubated in DMEM/F12 growth media containing 2.5% Nu-serum, 1% ITS (insulin, transferrin, and selenium), bovine serum albumin (BSA), linoleic acid, and penicillin/streptomycin for 48 hours.
Thereafter, the media were exchanged with serum-free media, and then the NCI-H295R cells were pretreated with allithiamine, fursultiamine, or benfotiamine at concentrations of 20 μM, 50 μM, and 100 μM for 12 hours. The cells were treated with 8-bromoadenosine 3′,5′-cyclic monophosphate (8-Br-cAMP) at a concentration of 0.5 mM to increase cortisol synthesis, and again treated with allithiamine, fursultiamine, or benfotiamine at 20 μM, 50 μM, and 100 μM, followed by reaction for 24 hours. After the reaction, cell cultures were collected, and the amount of cortisol produced in the cells was measured using an enzyme-linked immunosorbent assay (ELISA) kit (Enzo Life Sciences, Inc., NY, USA).

For `CC(=C(CCO)SSCC1CCCO1)N(C=O)Cc1cnc(C)nc1N` (stereo in doubt) [fursultiamine], the “corticosterone synthesis concentration (in words)” value ([1]; CRH-overexpressed mice, 60 mg/kg oral) was “smaller compared with the normal group”, the “fat mass, Body weight (%)” value ([1]; CRH-overexpressed mice, 60 mg/kg oral once a day, 6 weeks after administration, body composition analyzer) was 23.4% and the “increase in body weight (in words)” value ([1]; CRH-overexpressed mice, 60 mg/kg oral, 9 weeks, vs CRH-overexpressed control) was “smaller increase in body weight compared with the control”. The “fat mass (in words)” value ([1]; CRH-overexpressed mice, 60 mg/kg oral, vs control) was “smaller compared with the control”, the Corticosterone ([1]; serum, CRH-overexpressed mice, 60 mg/kg oral once a day) was 87.1 ng/mL and the body weight ([1]; week 0, CRH-overexpressed mice, 60 mg/kg oral once a day) was 18.4. For the same molecule, the body weight ([1]; week 1, CRH-overexpressed mice, 60 mg/kg oral once a day) was 17.8, the body weight ([1]; week 2, CRH-overexpressed mice, 60 mg/kg oral once a day) was 17.8 and the body weight ([1]; week 3, CRH-overexpressed mice, 60 mg/kg oral once a day) was 18.2. The body weight ([1]; week 4, CRH-overexpressed mice, 60 mg/kg oral once a day) was 18.1, the body weight ([1]; week 5, CRH-overexpressed mice, 60 mg/kg oral once a day) was 18.4 and the body weight ([1]; week 6, CRH-overexpressed mice, 60 mg/kg oral once a day) was 17.9. For the same molecule, the body weight ([1]; week 7, CRH-overexpressed mice, 60 mg/kg oral once a day) was 19.8, the body weight ([1]; week 8, CRH-overexpressed mice, 60 mg/kg oral once a day) was 19.7 and the body weight ([1]; week 9, CRH-overexpressed mice, 60 mg/kg oral once a day) was 19.2. For the same molecule, the “rate of increase in corticosterone level after stress induction (in words)” value ([2]; restraint stress, oral administration) was “rate of increase in corticosterone level decreased”, the corticosterone concentration ([2]; 0 min (before stress induction)) was 63.6 and the corticosterone concentration ([2]; 60 min (1 hour after stress induction)) was 260.4. It also gave a corticosterone concentration ([2]; 120 min (2 hours after stress induction)) of 261.4, a corticosterone concentration ([2]; 180 min (1 hour of recovery)) of 105.8 and a Cortisol production concentration ([3]; 20 μM compound) of 14.1 ng/mL. For the same molecule, the Cortisol production concentration ([3]; 50 μM compound) was 9.0 ng/mL, the “reduction in cortisol production” value ([3]; 50 μM) was 43% and the Cortisol production concentration ([3]; 100 μM compound) was 7.5 ng/mL. The “reduction in cortisol production” value ([3]; 100 μM) was 52.4% and the “inhibition of cortisol production increased by 0.5 mM 8-Br-cAMP (in words)” value [3] was “significantly inhibited the cortisol production”.

For `C/C(=C(\CCOP(=O)(O)O)SC(=O)c1ccccc1)N(C=O)Cc1cnc(C)nc1N` [benfotiamine], the Cortisol production concentration ([3]; 20 μM compound) was 14.0 ng/mL, the Cortisol production concentration ([3]; 50 μM compound) was 12.0 ng/mL and the “reduction in cortisol production” value ([3]; 50 μM) was 22.6%. The Cortisol production concentration ([3]; 100 μM compound) was 8.6 ng/mL, the “reduction in cortisol production” value ([3]; 100 μM) was 44.3% and the “inhibition of cortisol production increased by 0.5 mM 8-Br-cAMP (in words)” value [3] was “significantly inhibited the cortisol production”.

`C=CCSS/C(CCO)=C(/C)N(C=O)Cc1cnc(C)nc1N` [allithiamine] was tested, and the Cortisol production concentration ([3]; 20 μM compound) was 10.5 ng/mL, the Cortisol production concentration ([3]; 50 μM compound) was 6.4 ng/mL and the “reduction in cortisol production” value ([3]; 50 μM) was 50.7%. For the same molecule, the Cortisol production concentration ([3]; 100 μM compound) was 2.8 ng/mL, the “reduction in cortisol production” value ([3]; 100 μM) was 78.7% and the “inhibition of cortisol production increased by 0.5 mM 8-Br-cAMP (in words)” value [3] was “significantly inhibited the cortisol production”.
